# According to US4416826A, “Peresters and use thereof” (priority 1980, dated 1983):
# Where two headings read alike, the source gives them in different places.
# How the values were obtained:
# [1] = Stern-Volmer triplet quenching with naphthalene; type: physicochemical; settings: CCl4
# Text: All the peresters give linear Stern-Volmer plots when naphthalene is used as triplet quencher.
# Triplet energy = type: physicochemical
# [2] = End group analysis of polystyrene by IR
# Procedure: The polystyrene obtained from each of the above polymerizations is purified by repeated (four times) precipitation from benzene solution with methanol. Before each precipitation, the benzene solution is centrifuged to remove any insoluble material. The finely powdered polymer is filtered and dried under vacuum for two days. Known amounts of polymer are dissolved in benzene and the IR is taken (2000-1500 cm^-1) against benzene in 0.1-mm NaCl cells. The peaks at 1730 and 1670 cm^-1 for the carbonyl groups, caused by ester and benzophenones, respectively, are measured. […] The extinction coefficient of the carbonyl group at 1730 cm^-1 is compared with that of authenticated methyl benzoylbenzoate, which is used as a model to measure the concentration of the ester end groups in the polymer. From the concentration of the ester and the extinction resulting from the carbonyl group in the benzophenone, the absorption caused by the benzophenone that is present as the ester can be calculated. The value is subtracted from the absorption obtained at 1670 cm^- 1 for the polymer. From the resulting absorption, the concentration of benzophenone alone is estimated from the known extinction of benzophenone at that wavelength.
# [3] = Exp. 1: benzene, [I] 10 × 10^-3 M, styrene 2 M
# [4] = Exp. 2: benzene, [I] 10 × 10^-3 M, styrene 3.5 M
# [5] = Exp. 3: benzene, [I] 10 × 10^-3 M, styrene 5.0 M
# [6] = Exp. 4: benzene, [I] 10 × 10^-3 M, styrene 7.0 M
# [7] = Exp. 5: chloroform, [I] 5.0 × 10^-3 M, styrene 5.51 M
# [8] = Exp. 6: chloroform, [I] 5.0 × 10^-3 M, styrene 6.92 M
structure (smiles),measurement,setting,value
"CC(C)(C)OOC(=O)c1ccc(C(=O)c2ccccc2)cc1 [Ia, t-Butyl-4-Benzoylperbenzoate]",quenching constant kq τ,[1],7.5
same,triplet energy ET,Triplet energy,283 kJ/mol
same,"total number of benzophenones as end groups per chain, in words",[2],one benzophenone end group
same,"end groups per chain, Benzophenone",[2]; [3],0.18
same,"end groups per chain, Benzophenone as ester",[2]; [3],0.52
same,"end groups per chain, Total",[2]; [3],0.70
same,"end groups per chain, Benzophenone",[2]; [4],0.13
same,"end groups per chain, Benzophenone as ester",[2]; [4],0.68
same,"end groups per chain, Total",[2]; [4],0.81
same,"end groups per chain, Benzophenone",[2]; [5],0.33
same,"end groups per chain, Benzophenone as ester",[2]; [5],0.73
same,"end groups per chain, Total",[2]; [5],1.06
same,"end groups per chain, Benzophenone",[2]; [6],0.18
same,"end groups per chain, Benzophenone as ester",[2]; [6],0.81
same,"end groups per chain, Total",[2]; [6],0.99
same,"end groups per chain, Benzophenone",[2]; [7],0.29
same,"end groups per chain, Benzophenone as ester",[2]; [7],0.62
same,"end groups per chain, Total",[2]; [7],0.91
same,"end groups per chain, Benzophenone",[2]; [8],0.34
same,"end groups per chain, Benzophenone as ester",[2]; [8],0.71
same,"end groups per chain, Total",[2]; [8],1.05
same,"total number of benzophenones as end groups per chain, in words",[2]; listed as Perester,almost unity
